Experiments:
Assay type in all cases: cell-based
[1] = system: IR-induced senescent WI38 cells (IR-SC); assay: Viability of IR-induced senescent WI38 cells (IR-SC), 72 h, PI staining and flow cytometry; conditions: for EC50: Homo sapiens, WI-38, IR-induced senescent WI38 cells, 72 hours, viable (PI-) cells as percentage of vehicle control; for Ratio NSC/SC: ratio of WI38 EC50 in NSC to EC50 in IR-SC; for Selective inhibition of IR-SC WI38 cells versus normal WI38 cells: FIG. 2A, FIG. 2B, increasing concentrations
Description: (§1) Normal WI38 (NSC) and IR-induced senescent WI38 cells (IR-SC) were incubated with vehicle or increasing concentrations of compounds of Formula (I) or Formula (II) for 72 hours. The cells were digested with 0.25% trypsin and 1 mM EDTA, and harvested in PBS containing 2% FBS. After incubation with propidium iodide (PI, 100 ng/ml) in PBS at room temperature for 1 minute, cells were centrifuged at 1,200 rpm for 6 minutes to remove PI and then resuspended in PBS containing 2% FBS for analysis using a flow cytometer. Viable cells (PI-cells) were analyzed by flow cytometry at a constant flow rate to count the number of cells and calculated as a percentage of control cells treated with vehicle. Table 1 depicts the EC50 values of the compounds of Formula (I) and compounds of Formula (II) against normal WI38 and IR-induced senescent WI38.

[2] = system: Normal WI38 (NSC); assay: Viability of normal WI38 cells (NSC), 72 h, PI staining and flow cytometry; conditions: Homo sapiens, WI-38, viable (PI-) cells as percentage of vehicle control
Description: as §1

[3] = system: NCI-H146 cancer cells; assay: Cancer cell viability by MTS, 72 h, NCI-H146; conditions: Homo sapiens
Description: (§2) RS4; 11 and NCI-H146 cancer cells were incubated with vehicle or increasing concentrations of compounds of Formula (I) and Formula (II). At 72 hours post-treatment cell viability was measured by MTS and EC50 was calculated as a percentage of control cells treated with vehicle. Table 1 depicts the EC50 values of compounds of Formula (I) and Formula (II) against RS4; 11 and NCI-H146.

[4] = system: RS4; 11 cancer cells; assay: Cancer cell viability by MTS, 72 h, RS4;11; conditions: Homo sapiens, RS4;11 cells
Description: as §2

| Compound | EC50 [3] | EC50 [4] | EC50 [1] | EC50 [2] | Ratio NSC/SC [1] | Selective inhibition of IR-SC WI38 cells versus normal WI38 cells [1] |
| --- | --- | --- | --- | --- | --- | --- |
| CC1(C)CCC(CN2CCN(c3ccc(C(=O)NS(=O)(=O)c4ccc(NCC5CCOCC5)c([N+](=O)[O-])c4)c(Oc4cnc5[nH]ccc5c4)c3)CC2)=C(c2ccc(Cl)cc2)C1 [ABT-199, venetoclax, reference compound] | – | – | > 10 µM | > 10 µM | – | – |
| O=C1CCC(N2C(=O)c3cccc(NCCOCCOCCOCc4cn(CCCC(=O)N5CCN(CC#Cc6ccc(OCCCc7sc(N8CCc9cccc(C(=O)Nc%10nc%11ccccc%11s%10)c9C8)nc7C(=O)O)c(F)c6)CC5)nn4)c3C2=O)C(=O)N1 (stereo not shown) [XZ-12906, 2-(8-(benzo[d]thiazol-2-ylcarbamoyl)-3,4-dihydroisoquinolin-2(1H)-yl)-5-(3-(4-(3-(4-(4-(4-((2-(2-(2-(2-(2,6-dioxopiperidin-3-yl)-1,3-dioxoisoindolin-4-ylamino)ethoxy)ethoxy)ethoxy)methyl)-1H-1,2,3-triazol-1-yl)butanoyl)piperazin-1-yl)prop-1-ynyl)-2-fluorophenoxy)propyl)thiazole-4-carboxylic acid] | – | – | – | – | – | selectively inhibit IR-SC WI38 cells but not normal WI 38 cells in a dose dependent manner |
| CC(C)(C)OC(=O)N1CCN(CC#Cc2ccc(OCCCc3sc(N4CCc5cccc(C(=O)Nc6nc7ccccc7s6)c5C4)nc3C(=O)O)c(F)c2)CC1 [XZ-13861, 2-(8-(benzo[d]thiazol-2-ylcarbamoyl)-3,4-dihydroisoquinolin-2(1H)-yl)-5-(3-(4-(3-(4-(tert-butoxycarbonyl)piperazin-1-yl)prop-1-ynyl)-2-fluorophenoxy)propyl)thiazole-4-carboxylic acid] | – | – | 3.12 µM | 32.8 µM | 10.51 | selectively inhibit IR-SC WI38 cells but not normal WI 38 cells in a dose dependent manner |
| O=C1CCC(N2C(=O)c3cccc(NCCOCCOCc4cn(CCCC(=O)N5CCN(CC#Cc6ccc(OCCCc7sc(N8CCc9cccc(C(=O)Nc%10nc%11ccccc%11s%10)c9C8)nc7C(=O)O)c(F)c6)CC5)nn4)c3C2=O)C(=O)N1 (stereo not shown) [XZ-14424, 2-(8-(benzo[d]thiazol-2-ylcarbamoyl)-3,4-dihydroisoquinolin-2(1H)-yl)-5-(3-(4-(3-(4-(4-(4-((2-(2-((2-(2,6-dioxopiperidin-3-yl)-1,3-dioxoisoindolin-4-yl)amino)ethoxy)ethoxy)methyl)-1H-1,2,3-triazol-1-yl)butanoyl)piperazin-1-yl)prop-1-yn-1-yl)-2-fluorophenoxy)propyl)thiazole-4-carboxylic acid] | – | – | 1.4 µM | 1.6 µM | 1.2 | – |
| Cc1ncsc1-c1ccc(CNC(=O)[C@@H]2C[C@@H](O)CN2C(=O)[C@@H](NC(=O)COCCOCCOCc2cn(CCCC(=O)N3CCN(CC#Cc4ccc(OCCCc5sc(N6CCc7cccc(C(=O)Nc8nc9ccccc9s8)c7C6)nc5C(=O)O)c(F)c4)CC3)nn2)C(C)(C)C)cc1 [XZ-14455, 2-(8-(benzo[d]thiazol-2-ylcarbamoyl)-3,4-dihydroisoquinolin-2(1H)-yl)-5-(3-(2-fluoro-4-(3-(4-(4-(4-((S)-12-((2S,4R)-4-hydroxy-2-((4-(4-methylthiazol-5-yl)benzyl)carbamoyl)pyrrolidine-1-carbonyl)-13,13-dimethyl-10-oxo-2,5,8-trioxa-11-azatetradecyl)-1H-1,2,3-triazol-1-yl)butanoyl)piperazin-1-yl)-prop-1-yn-1-yl)phenoxy)propyl)thiazole-4-carboxylic acid] | > 2 µM | > 2 µM | 1.47 µM | 5 µM | 3.40 | – |
| CC1(C)CCC(c2ccc(Cl)cc2)=C(CN2CCN(c3ccc(C(=O)NS(=O)(=O)c4ccc(N[C@H](CCN5CCN(C(=O)COCCOCCOCCNc6cccc7c6C(=O)N(C6CCC(=O)NC6=O)C7=O)CC5)CSc5ccccc5)c(S(=O)(=O)C(F)(F)F)c4)cc3)CC2)C1 (stereo partly shown) [XZ-14510] | 0.112 µM | 0.22 µM | 0.177 µM | > 10 µM | >56 | – |
| CC1(C)CCC(c2ccc(Cl)cc2)=C(CN2CCN(c3ccc(C(=O)NS(=O)(=O)c4ccc(N[C@H](CCN5CCN(C(=O)COCCOCCNc6cccc7c6C(=O)N(C6CCC(=O)NC6=O)C7=O)CC5)CSc5ccccc5)c(S(=O)(=O)C(F)(F)F)c4)cc3)CC2)C1 (stereo partly shown) [XZ-14515] | 0.0792 µM | 0.173 µM | 0.158 µM | > 10 µM | >63.27 | – |
| Cc1ncsc1-c1ccc(CNC(=O)[C@@H]2C[C@@H](O)CN2C(=O)[C@@H](NC(=O)CCC(=O)NCCOCCOCCNC(=O)N2CCC(CNc3ccc(S(=O)(=O)NC(=O)c4ccc(N5CCN(CC6=C(c7ccc(Cl)cc7)CC(C)(C)CC6)CC5)cc4Oc4cnc5[nH]ccc5c4)cc3[N+](=O)[O-])CC2)C(C)(C)C)cc1 [XZ-14528, N1-(2-(2-(2-(4-(((4-N-(2-((1H-pyrrolo[2,3-b]pyridin-5-yl)oxy)-4-(4-((4′-chloro-5,5-dimethyl-3,4,5,6-tetrahydro-(1,1′-biphenyl-2-yl)methyl)piperazin-1-yl)benzoyl)sulfamoyl)-2-nitrophenyl)amino)methyl)piperidine-1-carboxamido)ethoxy)ethoxy)ethyl)-N4-((S)-1-((2S,4R)-4-hydroxy-2-((4-(4-methylthiazol-5-yl)benzyl)carbamoyl)pyrrolidin-1-yl)-3,3-dimethyl-1-oxobutan-2-yl)succinamide] | > 2 µM | 0.397 µM | > 10 µM | > 10 µM | – | – |

Second part, led by results:

| EC50 [3] | EC50 [4] | Compound | EC50 [1] | EC50 [2] | Ratio NSC/SC [1] | Selective inhibition of IR-SC WI38 cells versus normal WI38 cells [1] |
| --- | --- | --- | --- | --- | --- | --- |
| 0.0275 µM | 0.016 µM | CC1(C)CCC(c2ccc(Cl)cc2)=C(CN2CCN(c3ccc(C(=O)NS(=O)(=O)c4ccc(N[C@H](CCN5CCOCC5)CSc5ccccc5)c(S(=O)(=O)C(F)(F)F)c4)cc3)CC2)C1 [ABT-263, navitoclax, reference compound] | 0.61 µM | 12.6 µM | 20.6 | – |
| 0.065 µM | 0.09 µM | CC1(C)CCC(c2ccc(Cl)cc2)=C(CN2CCN(c3ccc(C(=O)NS(=O)(=O)c4ccc(N[C@H](CCN5CCN(C(=O)NCCOCCOCCNc6cccc7c6C(=O)N(C6CCC(=O)NC6=O)C7=O)CC5)CSc5ccccc5)c(S(=O)(=O)C(F)(F)F)c4)cc3)CC2)C1 (stereo partly drawn) [XZ-14509, 4-((R)-3-(4-(N-(4-(4-((2-(4-chlorophenyl)-5,5-dimethylcyclohex-1-enyl)methyl)piperazin-1-yl)benzoyl)sulfamoyl)-2-(trifluoromethylsulfonyl)phenylamino)-4-(phenylthio)butyl)-N-(2-(2-(2-(2-(2,6-dioxopiperidin-3-yl)-1,3-dioxoisoindolin-4-ylamino)ethoxy)ethoxy)ethyl)piperazine-1-carboxamide] | 0.226 µM | > 10 µM | >44.22 | – |
| 0.517 µM | 1.09 µM | CC1(C)CCC(c2ccc(Cl)cc2)=C(CN2CCN(c3ccc(C(=O)NS(=O)(=O)c4ccc(N[C@H](CCN5CCN(C(=S)NCCOCCOCCNc6cccc7c6C(=O)N(C6CCC(=O)NC6=O)C7=O)CC5)CSc5ccccc5)c(S(=O)(=O)C(F)(F)F)c4)cc3)CC2)C1 (stereo partly drawn) [XZ-14516, 4-(4-((2-(4-chlorophenyl)-5,5-dimethylcyclohex-1-enyl)methyl)piperazin-1-yl)-N-(4-((2R)-4-(4-(2-(2-(2-(2-(2,6-dioxopiperidin-3-yl)-1,3-dioxoisoindolin-4-ylamino)ethoxy)ethoxy)ethylcarbamothioyl)piperazin-1-yl)-1-(phenylthio)butan-2-ylamino)-3-(trifluoromethylsulfonyl)phenylsulfonyl)benzamide] | 0.092 µM | > 10 µM | >109 | – |
| 1.1 µM | 0.047 µM | CC1(C)CCC(CN2CCN(c3ccc(C(=O)NS(=O)(=O)c4ccc(NCC5CCN(C(=O)COCCOCCOCCNc6cccc7c6C(=O)N(C6CCC(=O)NC6=O)C7=O)CC5)c([N+](=O)[O-])c4)c(Oc4cnc5[nH]ccc5c4)c3)CC2)=C(c2ccc(Cl)cc2)C1 (stereo not shown) [XZ-14522] | > 10 µM | > 10 µM | – | – |
| 1.26 µM | 0.161 µM | CC1(C)CCC(CN2CCN(c3ccc(C(=O)NS(=O)(=O)c4ccc(NCC5CCN(C(=O)CCCn6cc(COCCOCCOCCNc7cccc8c7C(=O)N(C7CCC(=O)NC7=O)C8=O)nn6)CC5)c([N+](=O)[O-])c4)c(Oc4cnc5[nH]ccc5c4)c3)CC2)=C(c2ccc(Cl)cc2)C1 (stereo not shown) [XZ-14523, 2-((1H-pyrrolo[2,3-b]pyridin-5-yl)oxy)-4-(4-((4′-chloro-5,5-dimethyl-3,4,5,6-tetrahydro-[1,1′-biphenyl]-2-yl)methyl)piperazin-1-yl)-N-((4-(((1-(4-(4-((2-(2-(2-((2-(2,6-dioxopiperidin-3-yl)-1,3-dioxoisoindolin-4-yl)amino)ethoxy)ethoxy)ethoxy)methyl)-1H-1,2,3-triazol-1-yl)butanoyl)piperidin-4-yl)methyl)amino)-3-nitrophenyl)sulfonyl)benzamide] | > 10 µM | > 10 µM | – | – |
